# Assay results taken from PubChem BioAssay (NCI).
#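 Growth conditions: 96-well plates. Treatment: test compound, 48 hours, 5 concentrations. Analysis: linear interpolation between bracketing concentrations; unreached endpoints set to highest concentration. TGI: total growth inhibition.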
# What was measured:
# Test in all cases: NCI anticancer screen, dose series, 48 h
# [1] = system: HS 578T breast
# [2] = system: LXFL 529 NSCLC
# [3] = system: T-47D breast
# [4] = system: RXF-631 renal
# [5] = system: BT-549 breast
# [6] = system: MDA-MB-231 breast
# [7] = system: MDA-MB-435
# [8] = system: MDA-N
# [9] = system: DU-145 prostate
# [10] = system: PC-3 prostate
# [11] = system: SR leukemia
compound,measurement,setting,value
CC1OC(OC2CC(O)(C(=O)CO)Cc3c(O)c4c(c(O)c32)C(=O)c2ccccc2C4=O)CC(N)C1O (stereo unspecified),TGI,[1],113 nM
same,TGI,[2],347 nM
same,TGI,[3],134 nM
same,TGI,[4],213 nM
same,TGI,[5],4030 nM
same,TGI,[6],7400 nM
same,TGI,[7],1490 nM
same,TGI,[8],613 nM
same,TGI,[9],83.6 nM
same,TGI,[10],954 nM
COC(=O)NN1C(=O)C(=P(c2ccccc2)(c2ccccc2)c2ccccc2)C(C(=O)OC)=C1C,TGI,[2],> 100000 nM
same,TGI,[4],> 100000 nM
Cn1c(=O)c2nc(N3CCCCC3)cnc2n(C)c1=O,TGI,[2],> 100000 nM
same,TGI,[11],> 100000 nM
CC(C)(O)[C@H](CCO)O[Si](c1ccccc1)(c1ccccc1)C(C)(C)C,TGI,[2],23800 nM
same,TGI,[11],26400 nM
